Reference: ChEMBL document CHEMBL1649066, “An imidazopiperidine series of CCR5 antagonists for the treatment of HIV: the discovery of N-{(1S)-1-(3-fluorophenyl)-3-[(3-endo)-3-(5-isobutyryl-2-methyl-4,5,6,7-tetrahydro-1H-imidazo[4,5-c]pyridin-1-yl)-8-azabicyclo[3.2.1]oct-8-yl]propyl}acetamide (PF-232798)” (J Med Chem, 2011)

Key:
[1] = Tmax in dog at 0.5 mg/kg, po; assay type: ADME, organism-based, Canis lupus familiaris; set-up: dose 0.5 mg/kg, route oral; settings: in vivo
Canis familiaris [2] = assay: fCmax in dog at 0.5 mg/kg, po; assay type: ADME, organism-based, Canis lupus familiaris; set-up: dose 0.5 mg/kg, route oral; settings: in vivo
[3] = Tmax in rat at 10 mg/kg, po; assay type: ADME, organism-based; set-up: dose 10 mg/kg, route oral; settings: in vivo
Rattus norvegicus [4] = assay: fCmax in rat at 10 mg/kg, po; assay type: ADME, organism-based; set-up: dose 10 mg/kg, route oral; settings: in vivo
[5] = Apparent permeability from apical to basolateral side of human Caco2 cells; settings: Caco-2
[6] = Apparent permeability from basolateral to apical side of human Caco2 cells; settings: Caco-2
[7] = Intrinsic clearance in human liver microsomes assessed per mg of protein; assay type: ADME, Microsome
[8] = Plasma protein binding in rat at 1 mg/kg, iv and 10 mg/kg, po; assay type: ADME, organism-based; settings: read-out: PPB (converted)
[9] = Clearance in rat at 1 mg/kg, iv and 10 mg/kg, po; assay type: ADME, organism-based; settings: in vivo
Rattus norvegicus [10] = assay: Unbound clearance in rat at 1 mg/kg, iv and 10 mg/kg, po; assay type: ADME, organism-based; settings: in vivo
[11] = Half life in rat at 1 mg/kg, iv and 10 mg/kg, po; assay type: ADME, organism-based; settings: in vivo
[12] = Oral bioavailability in rat at 10 mg/kg; assay type: ADME, organism-based; settings: in vivo
[13] = Absorption in rat at 1 mg/kg, iv and 10 mg/kg, po; assay type: ADME, organism-based; settings: in vivo, read-out: Activity
[14] = Plasma protein binding in dog at 0.5 mg/kg, iv and 1 mg/kg, po; assay type: ADME, organism-based, Canis lupus familiaris; settings: read-out: PPB (converted)
Canis familiaris [15] = assay: Unbound clearance in dog at 0.5 mg/kg, iv and 1 mg/kg, po; assay type: ADME, organism-based, Canis lupus familiaris; settings: in vivo
[16] = Volume of distribution in dog at 0.5 mg/kg, iv and 1 mg/kg, po; assay type: ADME, organism-based, Canis lupus familiaris; settings: in vivo
[17] = Half life in dog at 0.5 mg/kg, iv and 1 mg/kg, po; assay type: ADME, organism-based, Canis lupus familiaris; settings: in vivo
[18] = Oral bioavailability in dog at 1 mg/kg; assay type: ADME, organism-based, Canis lupus familiaris; settings: in vivo
[19] = Absorption in dog at 0.5 mg/kg, iv and 1 mg/kg, po; assay type: ADME, organism-based, Canis lupus familiaris; settings: in vivo, read-out: Activity
[20] = Intrinsic clearance in rat liver microsomes assessed per mg of protein; assay type: ADME, Microsome
[21] = Intrinsic clearance in dog liver microsomes assessed per mg of protein; assay type: ADME, Canis lupus familiaris, Microsome

## Cc1nnc(C(C)C)n1[C@@H]1C[C@H]2CC[C@@H](C1)N2CC[C@H](NC(=O)C1CCC(F)(F)CC1)c1ccccc1 [MARAVIROC]
[1]
  Tmax: 1.5 h
Canis familiaris [2]
  Cmax_unbound: 80 nM
[3]
  Tmax: 2 h
Rattus norvegicus [4]
  Cmax_unbound: 73 nM
[5]
  Papp A→B: < 1 ×10⁻⁶ cm/s
[6]
  Papp B→A: 12 ×10⁻⁶ cm/s
[7]
  microsomal CLint: 49 µL/min/mg
[8]
  fraction unbound: 0.54
[9]
  clearance: 74 mL/min/kg
Rattus norvegicus [10]
  CL: 137 mL/min/kg
[11]
  half-life: 2.3 h
[12]
  bioavailability: 6%
[13]
  Fa: 20%
[14]
  fraction unbound: 0.4
Canis familiaris [15]
  CL: 53 mL/min/kg
[16]
  Vd: 4.3 L/kg
[17]
  half-life: 2.3 h
[18]
  bioavailability: 42%
[19]
  Fa: 70%
[20]
  microsomal CLint: < 6 µL/min/mg
[21]
  microsomal CLint: < 9 µL/min/mg
